Results on one sequence are retold here after patent publication US9144595B2, “APLs for treating arthritis” (University of Tennessee Research Foundation, priority 2009, dated 2015).

“Also recorded” adds a separate entry of the source.

For data set [1], the system named is DR1 Transgenic mice. The data set can be described thus: Effect of A12 on CIA in DR1 Transgenic mice (CII plus A12; intravenous A12 after CII-immunization). It is filed as in vivo, mouse. The settings on record: for Incidence: arthritis incidence. The procedure: (§1) Assuming that CII263-270 was key to developing immunity to the intact CII molecule, a number of analog peptides where amino acids within this small segment were substituted with those found in the corresponding sites of nonarthritogenic type I collagen were prepared and tested. […] The APL A12 developed for this study has the following amino acid sequence: LGPKGQTGEBG[IAGNKGDQGPK]GEBGPA (SEQ ID NO: 3) where B=hydroxproline. The core determinant of human CII263-270 is bracketed. The underlined residues are those substituted to produce APL A12. The residues amino terminal and carboxy terminal to the core determinant is from the normal human CII sequence.

The next data set has as its system FcεRIγ. The data set can be described thus: FcεRIγ expression in DR1 TCR tg cells. It counts as cell-based, mouse. The settings on record: DR1 TCR tg cells cultured with peptide 48 hours; FIG. 6. The procedure:
In FIG. 6 it is shown that A12 treatment increases […] expression. In the graph with axis 610 for the percentage of the maximum, axis 615 for the number of occurrences on a log scale, line 620 is for A2, line 625 is for media alone, and line 630 is for A12. Splenocytes from DR1 TCR transgenic mice were cultured for 48 hours in the presence of A12 (dark grey line), A2 (black line) or media alone (light grey line). […] The cells cultured with A2 peptide are no different than unstimulated controls.
Finally, we examined the expression of FcεRIγ, a molecule known to associate with the TCR complex. In some circumstances, the TCR is rewired so that the FcRgamma chain assumes the function of the zeta chain. Therefore, the DR1 TCR tg cells were cultured with either A12, or A2, or media alone and stained with an antibody specific for the gamma chain of the FcεRIγ molecule.

For another data set, the system named is TCR-ζ chain. The data set is described as follows: Phosphorylation of the TCR-ζ chain in CII-specific CD4+ T cells. It counts as cell-based, mouse. As to conditions: CD4+ T cells cultured with peptide-pulsed APCs; FIG. 4. The procedure: Purified CD4+ cells from the DR1-TCR tg mice are an excellent source of cells to explore the intracellular signaling pathways induced by either A2 or A12. In preliminary experiments we precipitated proteins with an antibody specific for CD3-ζ (34) to examine for the presence of phosphorylated proteins.
CD4+T cells were cultured with APC's pulsed with the wild-type peptide (WT), A12, or no antigen (No Ag). Proteins were immunoprecipitated with […] of affinity-purified anti-TCR-ζ antibody. The immunoprecipitates were separated by SDS-12%-PAGE, and transferred to nitrocellulose membrane. The membrane was blotted with monoclonal anti-phosphotyrosine antibody (α-pTyr). The positions of the phosphorylated-TCR-ζ are shown by arrows 410, 415. The 21 kDa and 23 kDa bands were not detected in immunoprecipitates from a B cell lymphoma line (data not shown). Bands for the total amount of zeta protein were identical for all three columns. Arrows 410 and 415 are shown denoting 21 kDa and 23 kDa bands, respectively. […] The bands are for No Ag 440, Wt 445, and A12 450. The bands are shown: Wt 425, No Ag 435, A12 430. Bands for zeta protein are shown: No Ag 455, Wt 460, and A12 465.

Data set [2] deals with DR1 Transgenic mice. The data set is described as follows: Acute toxicity study of HC Peptide 1 in DR1 transgenic mice. It counts as in vivo, mouse.
A further data set deals with DR4 mice. The data set is described as follows: Suppression of immunity to CII and arthritis in DR4 mice. It counts as in vivo, mouse. The settings on record: high-responder DR4 mice. The procedure: as §1
Data set [3] has as its system splenocytes of DR1 transgenic mice. The data set is described as follows: Oral APL A12: IFNγ production by cultured splenocytes of DR1 transgenic mice. It is filed as in vivo, mouse.

Turning to LGPKGQTGEBGIAGAKGDQGPKGEBGPA [APL A12], the “Antibodies to CII” value is on record as 33 ± 11 in the data set on DR1 Transgenic mice [1] (0.01 mg (so in the source) i.v.), 24 ± 7 (p ≦ 0.025) in the data set with DR1 Transgenic mice [1] (0.5 mg total i.v.) and 22 ± 9 (p ≦ 0.025) in the data set on DR1 Transgenic mice [1] (1 mg total i.v.). For the same sequence, the “antibody production to CII” value in the data set on DR1 Transgenic mice [1] (DR1-Transgenic mice) is reported as “significantly decreased”. Also, the Incidence in the data set on DR1 Transgenic mice [1] (0.01 mg (so in the source) i.v. on days 10, 12, 14 after CII-immunization) was 5/10; with DR1 Transgenic mice [1] (0.5 mg total i.v. on days 10, 12, 14 after CII-immunization), 3/10; in the data set with DR1 Transgenic mice [1] (1 mg total i.v. on days 10, 12, 14 after CII-immunization), 1/10 (p = 0.01). Further, the “immunity to CII and arthritis” value in the data set with DR1 Transgenic mice [1] (high-responder DR1 mice) and in the data set with DR4 mice was “profoundly suppress” each time. The “incidence of arthritis and number of arthritic limbs” value in the data set with DR1 Transgenic mice [1] (mice immunized with CII plus A12) is given as “dose-related decrease”. The “FcR gamma chain (FcεRIγ) expression” value in the data set on FcεRIγ was “significant increase”. In the data set with TCR-ζ chain, the TCR-ζ chain phosphorylation result is “did not significantly activate”. The “complete blood counts (CBC)” value in the data set on DR1 Transgenic mice [2] (after 6 days gavage with 100× the human dose vs IV saline) was “similar”. In the data set on DR1 Transgenic mice [2] (gavaged for six days with 100× human dose vs IV saline, listed as HC Peptide 1), the “Histologic assessment of internal organs (livers, spleens, kidneys, hearts, lungs)” value was “no difference; also recorded: did not reveal abnormalities”. In addition, in the data set on DR1 Transgenic mice [2] (oral, 100× the proposed human dose daily for six days), the “clinical signs of illness, changes in complete blood counts or liver and renal chemistries” value is listed as “not associated”. Besides, in the data set with DR1 Transgenic mice [2] (over the six days gavaged with 100× the human dose, vs IV saline), the “Changes in body weight” value is “similar”. Also, the “IFNγ Levels in Splenocyte Culture” value in data set [3] (mice gavaged with 50 μg APL A12 8 times over 2 weeks, splenocytes cultured with PBS) is given as 2 ± 3 pg/mL; in data set [3] (mice gavaged with 50 μg APL A12, splenocytes cultured with APL A12 50 μg/ml), 5 ± 10 pg/mL; in data set [3] (mice gavaged with 50 μg APL A12, splenocytes cultured with CII263-270 50 μg/ml) it was 12 ± 20 pg/mL; in data set [3] (mice gavaged with PBS, splenocytes cultured with APL A12 50 μg/ml) it was 65 ± 52 pg/mL.
